Reference: ChEMBL document CHEMBL5352437, “Identification and immunological evaluation of novel TLR2 agonists through structural optimization of Diprovocim” (Eur J Med Chem, 2022)
Activity calls are given as the source filed them. The rule behind the calls is not given here.

Legend:
THP-1 [1] = experiment: Induction of JNK phosphorylation in human PMA-differentiated THP-1 cells at 100 nM incubated up to 120 mins by Western blotting analysis; format: functional, cell-based
THP-1 [2] = experiment: Induction of p38 phosphorylation in human PMA-differentiated THP-1 cells at 100 nM incubated up to 120 mins by Western blotting analysis; format: functional, cell-based
THP-1 [3] = experiment: Cytotoxicity against human THP1 cells assessed as reduction in cell viability at 100 uM incubated for 24 hrs by CCK8 assay; format: toxicity, cell-based; details: thp-1, 24 h
Toll-like receptor 2 [4] = target: T1, Toll-like receptor 2 (Homo sapiens, UniProt O60603); experiment: Agonist activity at human TLR2 expressed in HEK-Blue hTLR2 cells as SEAP expression incubated for 16 hrs by SEAP-based plate reader analysis; format: cell-based
Toll-like receptor 2 [5] = target: T1, Toll-like receptor 2; experiment: Agonist activity at human TLR2 expressed in HEK-Blue hTLR2 cells assessed as activation of TLR2-triggered SEAP signaling at 0.1 uM incubated for 16 hrs in presence of anti-hTLR1 by SEAP-based plate reader analysis; format: cell-based
[6] = Cytotoxicity against human HEK-Blue hTLR2 cells assessed as reduction in cell viability at 100 uM incubated for 24 hrs by CCK8 assay; format: toxicity, cell-based; details: hek-blue htlr2, 24 h
THP-1 [7] = experiment: Induction of IL6 production in human PMA-differentiated THP-1 cells supernatant incubated for 4 hrs by ELISA method; format: functional, cell-based
THP-1 [8] = experiment: Induction of TNFalpha production in human PMA-differentiated THP-1 cells supernatant incubated for 4 hrs by ELISA method; format: functional, cell-based
Toll-like receptor 2 [9] = target: T1, Toll-like receptor 2; experiment: Agonist activity at human TLR2 expressed in HEK-Blue hTLR2 cells assessed as activation of TLR2-triggered SEAP signaling at 0.1 uM incubated for 16 hrs in presence of anti-hTLR2 by SEAP-based plate reader analysis; format: cell-based
THP-1 [10] = experiment: Induction of p65 phosphorylation in human PMA-differentiated THP-1 cells at 100 nM incubated up to 120 mins by Western blotting analysis; format: functional, cell-based
THP-1 [11] = experiment: Induction of IL1beta production in human PMA-differentiated THP-1 cells supernatant incubated for 4 hrs by ELISA method; format: functional, cell-based
Toll-like receptor 2 [12] = target: T1, Toll-like receptor 2; experiment: Agonist activity at human TLR2 expressed in HEK-Blue hTLR2 cells assessed as activation of TLR2-triggered SEAP signaling up to 10 uM incubated for 16 hrs by SEAP-based plate reader analysis; format: cell-based; details: filed as agonist
THP-1 [13] = experiment: Upregulation of MyD88 protein expression in human PMA-differentiated THP-1 cells at 100 nM by Western blotting analysis; format: functional, cell-based; details: time 0-120 min, TDE = time-dependent effect

T1 sequence (O60603 whole entry): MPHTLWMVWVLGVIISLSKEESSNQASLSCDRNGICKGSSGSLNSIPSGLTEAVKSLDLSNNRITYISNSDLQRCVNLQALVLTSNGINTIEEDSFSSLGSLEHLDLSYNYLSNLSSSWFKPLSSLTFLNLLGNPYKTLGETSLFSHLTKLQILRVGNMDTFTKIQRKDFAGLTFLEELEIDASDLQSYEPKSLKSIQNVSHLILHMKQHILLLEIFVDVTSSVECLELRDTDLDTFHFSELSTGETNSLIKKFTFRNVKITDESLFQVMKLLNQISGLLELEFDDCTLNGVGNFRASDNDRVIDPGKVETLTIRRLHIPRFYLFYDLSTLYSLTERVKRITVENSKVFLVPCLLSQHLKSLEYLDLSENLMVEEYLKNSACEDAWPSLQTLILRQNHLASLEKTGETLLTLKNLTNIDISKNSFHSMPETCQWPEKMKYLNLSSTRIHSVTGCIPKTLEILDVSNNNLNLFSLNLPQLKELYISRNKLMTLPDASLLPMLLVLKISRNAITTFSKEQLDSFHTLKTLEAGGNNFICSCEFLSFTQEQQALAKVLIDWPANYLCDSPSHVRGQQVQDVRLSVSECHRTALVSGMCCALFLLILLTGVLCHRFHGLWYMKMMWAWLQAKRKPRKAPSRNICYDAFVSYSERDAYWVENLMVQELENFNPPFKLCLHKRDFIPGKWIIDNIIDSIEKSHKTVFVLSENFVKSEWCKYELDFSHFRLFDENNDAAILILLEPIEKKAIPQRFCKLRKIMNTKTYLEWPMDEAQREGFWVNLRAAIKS

CCCC[C@H]1CN(C(=O)c2ccc(C(=O)N3C[C@@H](C(=O)N[C@H]4C[C@@H]4c4ccccc4)[C@H](C(=O)N[C@H]4C[C@@H]4c4ccccc4)C3)cc2)C[C@@H]1C(=O)N[C@H]1C[C@@H]1c1ccccc1
Activity (THP-1 [1]): Active | Activity (THP-1 [2]): Active | Activity (THP-1 [3]): Non-Toxic | EC50 (Toll-like receptor 2 [4]): 0.035 µM | Activity (Toll-like receptor 2 [5]): inactive | Activity [6]: Non-Toxic | Activity (THP-1 [7]): Dose-Dependent Effect | Activity (THP-1 [8]): Dose-Dependent Effect | Activity (Toll-like receptor 2 [9]): inactive | Activity (THP-1 [10]): Active | Activity (THP-1 [11]): Dose-Dependent Effect | Activity (Toll-like receptor 2 [12]): Active | Activity (THP-1 [13]): Tde

CC1CN(C(=O)c2ccc(C(=O)N3CC(C)[C@H](C(=O)N[C@H]4C[C@@H]4c4ccccc4)C3)cc2)CC1C(=O)N[C@H]1C[C@@H]1c1ccccc1 (stereo not given in full)
EC50 (Toll-like receptor 2 [4]): > 5 µM

CCC[C@@H]1CN(C(=O)c2ccc(C(=O)N3C[C@@H](C(=O)N[C@H]4C[C@@H]4c4ccccc4)[C@H](C(=O)N[C@H]4C[C@@H]4c4ccccc4)C3)cc2)C[C@H]1C(=O)N[C@H]1C[C@@H]1c1ccccc1
EC50 (Toll-like receptor 2 [4]): 0.177 µM

O=C(N[C@H]1C[C@@H]1c1ccccc1)C1CN(C(=O)c2ccc(C(=O)N3C[C@@H](C(=O)N[C@H]4C[C@@H]4c4ccccc4)[C@H](C(=O)N[C@H]4C[C@@H]4c4ccccc4)C3)cc2)CC1CF (stereo not given in full)
EC50 (Toll-like receptor 2 [4]): > 5 µM

CCC1CN(C(=O)c2ccc(C(=O)N3C[C@@H](C(=O)N[C@H]4C[C@@H]4c4ccccc4)[C@H](C(=O)N[C@H]4C[C@@H]4c4ccccc4)C3)cc2)CC1C(=O)N[C@H]1C[C@@H]1c1ccccc1 (stereo not given in full)
EC50 (Toll-like receptor 2 [4]): 0.514 µM

CC1CN(C(=O)c2ccc(C(=O)N3C[C@@H](C(=O)N[C@H]4C[C@@H]4c4ccccc4)[C@H](C(=O)N[C@H]4C[C@@H]4c4ccccc4)C3)cc2)CC1C(=O)N[C@H]1C[C@@H]1c1ccccc1 (stereo not given in full)
EC50 (Toll-like receptor 2 [4]): 0.7 µM

CC(C)C1CN(C(=O)c2ccc(C(=O)N3C[C@@H](C(=O)N[C@H]4C[C@@H]4c4ccccc4)[C@H](C(=O)N[C@H]4C[C@@H]4c4ccccc4)C3)cc2)CC1C(=O)N[C@H]1C[C@@H]1c1ccccc1 (stereo not given in full)
EC50 (Toll-like receptor 2 [4]): 0.702 µM

CCCC1CN(C(=O)c2ccc(C(=O)N3CC(CCC)[C@H](C(=O)N[C@H]4C[C@@H]4c4ccccc4)C3)cc2)CC1C(=O)N[C@H]1C[C@@H]1c1ccccc1 (stereo not given in full)
EC50 (Toll-like receptor 2 [4]): > 5 µM

CC(C)CC1CN(C(=O)c2ccc(C(=O)N3CC(CC(C)C)[C@H](C(=O)N[C@H]4C[C@@H]4c4ccccc4)C3)cc2)CC1C(=O)N[C@H]1C[C@@H]1c1ccccc1 (stereo not given in full)
EC50 (Toll-like receptor 2 [4]): > 5 µM

O=C(N[C@H]1C[C@@H]1c1ccccc1)C1CCN(C(=O)c2ccc(C(=O)N3C[C@@H](C(=O)N[C@H]4C[C@@H]4c4ccccc4)[C@H](C(=O)N[C@H]4C[C@@H]4c4ccccc4)C3)cc2)CC1
EC50 (Toll-like receptor 2 [4]): > 5 µM

CCC1CN(C(=O)c2ccc(C(=O)N3CC(CC)[C@H](C(=O)N[C@H]4C[C@@H]4c4ccccc4)C3)cc2)CC1C(=O)N[C@H]1C[C@@H]1c1ccccc1 (stereo not given in full)
EC50 (Toll-like receptor 2 [4]): > 5 µM

O=C(N[C@H]1C[C@@H]1c1ccccc1)C1CN(C(=O)c2ccc(C(=O)N3C[C@@H](C(=O)N[C@H]4C[C@@H]4c4ccccc4)[C@H](C(=O)N[C@H]4C[C@@H]4c4ccccc4)C3)cc2)C1
EC50 (Toll-like receptor 2 [4]): > 5 µM

CCCCC1CN(C(=O)c2ccc(C(=O)N3C[C@@H](C(=O)N[C@H]4C[C@@H]4c4ccccc4)[C@H](C(=O)N[C@H]4C[C@@H]4c4ccccc4)C3)cc2)CC1C(=O)N[C@H]1C[C@@H]1c1ccccc1 (stereo not given in full)
EC50 (Toll-like receptor 2 [4]): 0.037 µM

CCCC1CN(C(=O)c2ccc(C(=O)N3C[C@@H](C(=O)N[C@H]4C[C@@H]4c4ccccc4)[C@H](C(=O)N[C@H]4C[C@@H]4c4ccccc4)C3)cc2)CC1C(=O)N[C@H]1C[C@@H]1c1ccccc1 (stereo not given in full)
EC50 (Toll-like receptor 2 [4]): 0.107 µM

O=C(N[C@H]1C[C@@H]1c1ccccc1)C1CN(C(=O)c2ccc(C(=O)N3C[C@@H](C(=O)N[C@H]4C[C@@H]4c4ccccc4)[C@H](C(=O)N[C@H]4C[C@@H]4c4ccccc4)C3)cc2)CC1CO (stereo not given in full)
EC50 (Toll-like receptor 2 [4]): > 5 µM

CC(C)CC1CN(C(=O)c2ccc(C(=O)N3C[C@@H](C(=O)N[C@H]4C[C@@H]4c4ccccc4)[C@H](C(=O)N[C@H]4C[C@@H]4c4ccccc4)C3)cc2)CC1C(=O)N[C@H]1C[C@@H]1c1ccccc1 (stereo not given in full)
EC50 (Toll-like receptor 2 [4]): 0.286 µM

CCCCC1CN(C(=O)c2ccc(C(=O)N3CC(CCCC)[C@H](C(=O)N[C@H]4C[C@@H]4c4ccccc4)C3)cc2)CC1C(=O)N[C@H]1C[C@@H]1c1ccccc1 (stereo not given in full)
EC50 (Toll-like receptor 2 [4]): 1.5 µM

CCC[C@H]1CN(C(=O)c2ccc(C(=O)N3C[C@@H](C(=O)N[C@H]4C[C@@H]4c4ccccc4)[C@H](C(=O)N[C@H]4C[C@@H]4c4ccccc4)C3)cc2)C[C@@H]1C(=O)N[C@H]1C[C@@H]1c1ccccc1
EC50 (Toll-like receptor 2 [4]): 0.087 µM

CCCC[C@@H]1CN(C(=O)c2ccc(C(=O)N3C[C@@H](C(=O)N[C@H]4C[C@@H]4c4ccccc4)[C@H](C(=O)N[C@H]4C[C@@H]4c4ccccc4)C3)cc2)C[C@H]1C(=O)N[C@H]1C[C@@H]1c1ccccc1
Activity (THP-1 [1]): Active | Activity (THP-1 [2]): Active | Activity (THP-1 [3]): Non-Toxic | EC50 (Toll-like receptor 2 [4]): 0.039 µM | Activity (Toll-like receptor 2 [5]): inactive | Activity [6]: Non-Toxic | Activity (THP-1 [7]): Dose-Dependent Effect | Activity (THP-1 [8]): Dose-Dependent Effect | Activity (Toll-like receptor 2 [9]): inactive | Activity (THP-1 [10]): Active | Activity (THP-1 [11]): Dose-Dependent Effect | Activity (Toll-like receptor 2 [12]): Active | Activity (THP-1 [13]): Tde

O=C(N[C@H]1C[C@@H]1c1ccccc1)[C@H]1CCN(C(=O)c2ccc(C(=O)N3C[C@@H](C(=O)N[C@H]4C[C@@H]4c4ccccc4)[C@H](C(=O)N[C@H]4C[C@@H]4c4ccccc4)C3)cc2)C1
EC50 (Toll-like receptor 2 [4]): > 5 µM

CC(C)C1CN(C(=O)c2ccc(C(=O)N3CC(C(C)C)[C@H](C(=O)N[C@H]4C[C@@H]4c4ccccc4)C3)cc2)CC1C(=O)N[C@H]1C[C@@H]1c1ccccc1 (stereo not given in full)
EC50 (Toll-like receptor 2 [4]): > 5 µM
